Experimental data published in patent US20230124862A1, “BISMUTH THIOL COMPOUNDS AND COMPOSITIONS AND METHODS OF TREATING MICROBIAL CO-INFECTIONS” (Microbion Corporation, priority 2020, published 2023).
“And” between values parts separate entries of the source, which are not always exact repeats. Equal values may be shown once. Read-outs that look alike come from different tables or passages of the source.

Columns and labels:
[1] = assay type: in vivo, beagle dogs; settings: dog, per animal and Grp Avg, sampling times not given
Method: Once adequately conditioned to the restraint device and face-masks, the animals are individually exposed to the test article aerosols. Animals receive a single face-mask inhalation exposure in a ramp study design to test article aerosols for up to 60 min. Animal observations during and post exposure determine the tolerance of inhaled BisEDT aerosols.
Blood Collections and Bioanalytical Analysis: Blood are collected for pharmacokinetic (PK) analysis prior to exposure, then at 4 hr (±5 min) post exposure, and again on Day 1, Day 2, Day 7 (pre- and 4 hr (±5 min)-post exposure), Day 8, Day 9, Day 10, Day 11, Day 12, Day 13, and Day 14. A total of 0.25 mL is collected at each timepoint. No PK blood is collected from the vehicle control (Group 1) animals; only animals exposed to BisEDT have blood collected for PK analysis. Collected samples are flash frozen without processing for shipment to Medpace for bioanalytical analysis. Additional blood is collected from all animals in all groups for hematology (1 mL) and clinical chemistry (1 mL) at baseline, Day 7 (pre-exposure), and again at euthanasia. Blood (2-2 mL) is collected from all animals at necropsy for coagulation analysis (d-Dimer, fibrinogen, PT, and PTT).
For hematology analyses, whole blood (1 ml) will be collected with vacutainers containing K3EDTA as an anticoagulant.
Hematology samples are analyzed by automated (ADVIA™ 120 Hematology System, Siemens Medical Solutions Diagnostics, Tarrytown, N.Y.) analyses. Disposition will be recorded on the sample processing form.

physchem = assay type: physicochemical
[2] = test system: MucilAir fully differentiated human airway epithelium
E. coli ATCC 25922 = settings: cited from earlier work
S. aureus ATCC 29213 = settings: CLSI established QC range; cited from earlier work
[3] = Group 2 (55-56 ug/kg lung deposited)
[4] = Group 4 (176-197 ug/kg lung deposited)

Structure (SMILES): C1C[S][Bi]([S]CC[S][Bi]2[S]CC[S]2)[S]1 [BisEDT, Bismuth-1,2-ethanedithiol]
- BASO [1, 3]: 0.12 ^3/uL (2×) and 0.15 ^3/uL and 0.08 ^3/uL (2×) and 0.11 ^3/uL and 0.10 ^3/uL and 0.07 ^3/uL and 0.13 ^3/uL
- EOS [1, 3]: 0.30 ^3/uL and 0.45 ^3/uL and 0.39 ^3/uL and 0.14 ^3/uL and 0.09 ^3/uL and 0.06 ^3/uL and 0.22 ^3/uL and 0.27 ^3/uL and 0.23 ^3/uL
- HCT [1, 3]: 45.8% and 43.1% and 41.8% and 49.0% and 43.7% and 42.9% and 47.4% and 43.4% and 42.4%
- HGB [1, 3]: 15.6 g/dL and 15.0 g/dL (3×) and 14.2 g/dL and 16.4 g/dL and 14.3 g/dL (2×) and 16.0 g/dL
- LUC [1, 3]: 0.01 ^3/uL (5×) and 0.02 ^3/uL (4×)
- LYMP [1, 3]: 2.81 ^3/uL and 2.73 ^3/uL and 2.09 ^3/uL and 2.27 ^3/uL and 2.82 ^3/uL and 2.61 ^3/uL and 2.54 ^3/uL and 2.78 ^3/uL and 2.35 ^3/uL
- MCH [1, 3]: 22.8 pg (2×) and 23.2 pg (2×) and 22.7 pg and 22.3 pg (2×) and 21.9 pg and 23.0 pg
- MCHC [1, 3]: 34.1 g/dL (2×) and 34.9 g/dL and 33.4 g/dL and 34.4 g/dL and 33.2 g/dL and 33.8 g/dL and 34.7 g/dL and 33.7 g/dL
- MCV [1, 3]: 67.0 fL and 66.4 fL and 66.5 fL and 69.5 fL and 64.8 fL and 66.0 fL and 68.3 fL and 65.6 fL and 66.3 fL
- MONO [1, 3]: 0.63 ^3/uL and 0.67 ^3/uL and 0.53 ^3/uL and 0.50 ^3/uL and 0.51 ^3/uL (2×) and 0.57 ^3/uL and 0.59 ^3/uL and 0.52 ^3/uL
- NEUT [1, 3]: 5.31 ^3/uL and 5.11 ^3/uL and 2.88 ^3/uL and 3.96 ^3/uL and 4.26 ^3/uL and 4.83 ^3/uL and 4.64 ^3/uL and 4.69 ^3/uL and 3.86 ^3/uL
- PLT [1, 3]: 197 ^3/uL and 166 ^3/uL and 161 ^3/uL and 206 ^3/uL and 294 ^3/uL and 304 ^3/uL and 201.5 ^3/uL and 230.0 ^3/uL and 232.5 ^3/uL
- RBC [1, 3]: 6.83 ^6/uL and 6.49 ^6/uL and 6.28 ^6/uL and 7.05 ^6/uL and 6.74 ^6/uL and 6.50 ^6/uL and 6.94 ^6/uL and 6.62 ^6/uL and 6.39 ^6/uL
- RET % [1, 3]: 0.34% and 0.55% and 0.60% and 0.65% and 0.25% and 0.31% and 0.50% and 0.40% and 0.46%
- WBC [1, 3]: 9.18 ^3/uL and 9.13 ^3/uL and 5.99 ^3/uL and 6.99 ^3/uL and 7.77 ^3/uL and 8.10 ^3/uL and 8.09 ^3/uL and 8.45 ^3/uL and 7.05 ^3/uL
- BASO [1, 4]: 0.07 ^3/uL (3×) and 0.04 ^3/uL (2×) and 0.09 ^3/uL (3×) and 0.06 ^3/uL and 0.08 ^3/uL (2×) and 0.05 ^3/uL and 0.10 ^3/uL (3×)
- EOS [1, 4]: 0.48 ^3/uL and 0.50 ^3/uL and 0.35 ^3/uL and 0.95 ^3/uL and 0.77 ^3/uL and 0.47 ^3/uL and 0.72 ^3/uL and 0.64 ^3/uL and 0.41 ^3/uL and 0.18 ^3/uL and 0.13 ^3/uL and 0.19 ^3/uL (2×) and 0.21 ^3/uL and 0.17 ^3/uL
- HCT [1, 4]: 42.7% and 47.5% and 45.4% and 41.9% and 50.6% and 47.6% and 42.30% and 49.05% and 46.50% and 39.8% and 40.7% and 37.1% and 44.2% and 38.45% and 42.45%
- HGB [1, 4]: 14.8 g/dL and 16.0 g/dL and 14.6 g/dL and 14.7 g/dL and 16.6 g/dL and 15.4 g/dL and 14.75 g/dL and 16.30 g/dL and 15.00 g/dL and 13.7 g/dL and 13.8 g/dL and 12.8 g/dL and 14.3 g/dL and 13.25 g/dL and 14.05 g/dL
- LUC [1, 4]: 0.01 ^3/uL (7×) and 0.02 ^3/uL (8×)
- LYMP [1, 4]: 2.68 ^3/uL and 3.18 ^3/uL and 2.78 ^3/uL (2×) and 2.88 ^3/uL and 3.04 ^3/uL and 2.82 ^3/uL and 3.11 ^3/uL and 2.80 ^3/uL and 2.46 ^3/uL and 2.59 ^3/uL and 2.32 ^3/uL and 2.87 ^3/uL and 2.39 ^3/uL and 2.73 ^3/uL
- MCH [1, 4]: 23.0 pg and 23.4 pg and 22.9 pg (2×) and 22.8 pg and 23.1 pg and 22.90 pg (2×) and 23.25 pg and 24.1 pg and 20.9 pg and 21.0 pg and 24.2 pg and 22.55 pg (2×)
- MCHC [1, 4]: 34.7 g/dL and 33.6 g/dL and 32.2 g/dL and 35.2 g/dL and 32.8 g/dL and 32.4 g/dL (2×) and 34.95 g/dL and 33.20 g/dL (2×) and 32.30 g/dL and 34.4 g/dL and 34.0 g/dL and 34.6 g/dL and 34.50 g/dL
- MCV [1, 4]: 66.3 fL and 69.7 fL and 71.3 fL and 64.8 fL and 70.4 fL and 70.9 fL and 65.55 fL and 70.05 fL and 71.10 fL and 70.1 fL and 61.6 fL and 60.8 fL and 74.7 fL and 65.45 fL and 68.15 fL
- MONO [1, 4]: 0.39 ^3/uL (2×) and 0.37 ^3/uL (2×) and 0.49 ^3/uL and 0.50 ^3/uL (2×) and 0.44 ^3/uL (2×) and 0.38 ^3/uL and 0.73 ^3/uL and 0.45 ^3/uL and 0.61 ^3/uL and 0.59 ^3/uL and 0.56 ^3/uL
- NEUT [1, 4]: 4.61 ^3/uL and 5.96 ^3/uL (2×) and 6.30 ^3/uL and 5.98 ^3/uL and 5.95 ^3/uL and 6.74 ^3/uL and 5.30 ^3/uL and 6.52 ^3/uL and 6.73 ^3/uL and 4.11 ^3/uL and 3.60 ^3/uL and 7.39 ^3/uL and 5.17 ^3/uL and 5.75 ^3/uL
- PLT [1, 4]: 208 ^3/uL and 214 ^3/uL and 213 ^3/uL and 246 ^3/uL and 238 ^3/uL and 251 ^3/uL and 227.00 ^3/uL and 226.00 ^3/uL and 232.00 ^3/uL and 257 ^3/uL and 308 ^3/uL and 313 ^3/uL and 248 ^3/uL and 285.00 ^3/uL and 278.00 ^3/uL
- RBC [1, 4]: 6.44 ^6/uL and 6.81 ^6/uL and 6.37 ^6/uL and 6.46 ^6/uL and 7.19 ^6/uL and 6.71 ^6/uL and 6.45 ^6/uL and 7.00 ^6/uL and 6.54 ^6/uL and 5.68 ^6/uL and 6.61 ^6/uL and 6.11 ^6/uL and 5.92 ^6/uL and 5.90 ^6/uL and 6.27 ^6/uL
- RET % [1, 4]: 0.41% and 0.33% and 0.58% and 0.27% and 0.62% and 0.43% and 0.34% and 0.48% and 0.51% (2×) and 1.07% and 0.88% and 0.83% and 0.79% and 0.86%
- WBC [1, 4]: 8.23 ^3/uL and 10.09 ^3/uL and 9.86 ^3/uL and 10.41 ^3/uL and 10.37 ^3/uL and 10.50 ^3/uL and 9.32 ^3/uL (2×) and 10.23 ^3/uL and 10.18 ^3/uL and 10.21 ^3/uL and 7.45 ^3/uL and 6.63 ^3/uL and 11.18 ^3/uL and 8.42 ^3/uL
- solubility (physchem): < 5 µg/mL
- Morphology after exposure ([2]; BisEDT in solution, all tested concentrations and time points): No morphology changes were observed
- Morphology after exposure ([2]; solid in dextran, 3.33 μg/cm^2, 24 and 48 h): Cells were rounded and opaque at the periphery of inserts
- Morphology after exposure ([2]; solid in dextran, 0.033 and 0.33 μg/cm^2): No morphological modifications were observed
- Morphology after exposure ([2]; solid, 1 μg/cm^2, 1 hour and 8 hour): no important morphological changes were observed
- Morphology after exposure ([2]; solid, 1 μg/cm^2, 24 h): the epithelial cells on 2 inserts out of 3 were dead
- Morphology after exposure ([2]; solid, 1 μg/cm^2, 48 h): the epithelial cells on all 3 inserts were dead
- QC Range 24 hr (E. coli ATCC 25922; E. coli ATCC 25922, established QC range, 24 hr): 0.5-4
- Expected MIC: goal (acceptable range) (E. coli ATCC 25922; control strain ATCC 25922): 1 µg/mL
- QC range of MIC (S. aureus ATCC 29213): (0.12-1) μg/mL
